From article PMC6469177, “[^177Lu]Lu-PSMA-617 Salivary Gland Uptake Characterized by Quantitative In Vitro Autoradiography” (Pharmaceuticals, 2019)

Legend:
[1] = molecular target: T1, prostate-specific membrane antigen (PSMA) (Sus scrofa, UniProt O77564); assay: radioligand competition with […]Lu-PSMA-617, autoradiography on pig salivary gland tissue
T1 construct: gene FOLH1; pig salivary gland tissue cryosections

[2] = molecular target: T2, prostate-specific membrane antigen (PSMA) (Homo sapiens, UniProt Q04609); assay: blocking of […]Lu-PSMA-617 binding with […] 2-PMPA, autoradiography
T2 construct: gene FOLH1

[3] = molecular target: T1, prostate-specific membrane antigen (PSMA); assay: single-concentration ([…]) blocking of […]Lu-PSMA-617 binding, autoradiography

T1 sequence (O77564 whole entry): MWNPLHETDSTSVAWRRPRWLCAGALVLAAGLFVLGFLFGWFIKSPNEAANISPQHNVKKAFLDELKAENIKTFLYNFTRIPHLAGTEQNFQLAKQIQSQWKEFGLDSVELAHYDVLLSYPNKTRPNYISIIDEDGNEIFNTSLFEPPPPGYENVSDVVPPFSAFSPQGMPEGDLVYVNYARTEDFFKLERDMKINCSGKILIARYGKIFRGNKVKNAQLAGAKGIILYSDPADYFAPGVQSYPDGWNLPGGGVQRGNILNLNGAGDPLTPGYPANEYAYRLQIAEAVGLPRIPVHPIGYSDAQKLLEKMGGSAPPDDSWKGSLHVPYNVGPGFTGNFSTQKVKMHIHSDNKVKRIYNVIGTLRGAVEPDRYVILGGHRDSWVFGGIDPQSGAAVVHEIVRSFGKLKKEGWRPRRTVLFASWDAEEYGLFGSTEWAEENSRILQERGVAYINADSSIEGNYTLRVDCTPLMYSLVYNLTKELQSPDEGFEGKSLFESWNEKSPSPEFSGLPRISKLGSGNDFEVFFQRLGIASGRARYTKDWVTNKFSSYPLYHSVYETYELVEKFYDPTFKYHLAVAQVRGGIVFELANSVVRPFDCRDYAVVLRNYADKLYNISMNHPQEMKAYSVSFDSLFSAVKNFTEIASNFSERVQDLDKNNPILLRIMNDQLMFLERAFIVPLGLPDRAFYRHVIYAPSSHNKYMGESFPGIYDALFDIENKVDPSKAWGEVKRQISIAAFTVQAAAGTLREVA
T2 sequence (Q04609 whole entry): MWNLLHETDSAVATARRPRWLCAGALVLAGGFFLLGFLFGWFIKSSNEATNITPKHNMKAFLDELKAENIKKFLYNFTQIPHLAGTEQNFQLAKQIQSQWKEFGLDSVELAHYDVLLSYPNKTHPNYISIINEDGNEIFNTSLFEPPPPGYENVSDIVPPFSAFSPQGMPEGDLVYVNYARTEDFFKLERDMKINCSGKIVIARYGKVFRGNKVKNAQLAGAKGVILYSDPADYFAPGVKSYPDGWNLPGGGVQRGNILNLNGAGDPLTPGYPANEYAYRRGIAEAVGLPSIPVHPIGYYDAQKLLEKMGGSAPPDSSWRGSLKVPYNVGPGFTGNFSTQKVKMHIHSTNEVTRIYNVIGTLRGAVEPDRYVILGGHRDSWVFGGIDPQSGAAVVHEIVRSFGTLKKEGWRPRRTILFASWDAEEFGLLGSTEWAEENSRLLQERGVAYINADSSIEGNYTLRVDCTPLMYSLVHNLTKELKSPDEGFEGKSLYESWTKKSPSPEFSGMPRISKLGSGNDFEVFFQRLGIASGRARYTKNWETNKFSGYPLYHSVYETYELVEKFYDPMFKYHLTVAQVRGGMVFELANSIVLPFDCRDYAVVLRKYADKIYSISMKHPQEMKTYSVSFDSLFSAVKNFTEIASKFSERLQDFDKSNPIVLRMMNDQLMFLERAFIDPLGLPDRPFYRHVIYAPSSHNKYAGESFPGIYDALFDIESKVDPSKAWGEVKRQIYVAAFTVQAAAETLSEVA

## O=C(O)CC[C@H](NC(=O)N[C@@H](CCCCNC(=O)[C@H](Cc1ccc2ccccc2c1)NC(=O)[C@H]1CC[C@H](CNC(=O)CN2CCN(CC(=O)O)CCN(CC(=O)O)CCN(CC(=O)O)CC2)CC1)C(=O)O)C(=O)O [PSMA-617]
[1]
  IC50: 6 ± 0.1 nM

## O=C(O)CCC(CP(=O)(O)O)C(=O)O (stereo not drawn) [2-PMPA, 2-Phosphonomethyl pentanedioic acid]
[2]
  blocking of [177Lu]Lu-PSMA-617 binding with 80 μM 2-PMPA, autoradiography: In contrast, LNCaP membrane pellets only showed a negligible non-specific bound fraction.
[3]
  single-concentration (80 μM) blocking of [177Lu]Lu-PSMA-617 binding, autoradiogr: Additional blocking with 2-PMPA, a highly potent PSMA-inhibitor, resulted in a reduced uptake of radioligand in the glandular areas
